Experimental data taken from publication PMC5863483, “Low HLA binding of diabetes-associated CD8+ T-cell epitopes is increased by post translational modifications” (BMC Immunology, 2018).
*1 amine or outer side, *2 acyl side, *3 side chain or, on linkers, in order; H or OH if unused. Where a SMILES comes first, the peptide text is derived from it. [ ]: non-standard residue; d: D form. Tyr(3-Cl) = N[C@@H](Cc1ccc(O)c(Cl)c1)C(=O)O; γGlu = O=C(O)[C@H](CCC(=O)[*:2])N[*:1]; βAsp = O=C(O)[C@H](CC(=O)[*:2])N[*:1]; Cya = N[C@@H](CS(=O)(=O)O)C(=O)O; Cit = NC(=O)NCCC[C@H](N)C(=O)O

Biological target: HLA-A*02:01 (Homo sapiens, UniProt P04439, D140Y/D185E/D98H/E176V/E277Q/G131W/G231S/I119V/I121R/I166T/I218V/L300P/L318F/N151K/N90K/P208A/P217A/Q86G/Q94H/R138H/R169H/T345S)
Assay: HLA-peptide competition binding assay, A*02:01
Details: not given

| SMILES | IC50 [nM] |
| --- | --- |
| CSCC[C@H](NC(=O)[C@@H](N)Cc1c[nH]c2ccccc12)C(=O)N[C@@H](CCCNC(N)=O)C(=O)N[C@@H](CC(C)C)C(=O)N[C@@H](CC(C)C)C(=O)N1CCC[C@H]1C(=O)N[C@@H](CC(C)C)C(=O)N[C@@H](CC(C)C)C(=O)N[C@@H](C)C(=O)N[C@@H](CC(C)C)C(=O)O [WMULLPLLAL] (H-WM[Cit]LLPLLAL-OH) | 310 |

Same assay, conditions: increase of A*02:01 binding of the modified peptide compared to the WT peptide

| SMILES | Fold increase [fold] |
| --- | --- |
| CC(C)C[C@H](NC(=O)[C@H](C)NC(=O)[C@H](CCC(=O)O)NC(=O)[C@@H](NC(=O)[C@H](CC(C)C)NC(=O)[C@H](Cc1c[nH]cn1)NC(=O)[C@@H](N)CO)C(C)C)C(=O)N[C@@H](Cc1ccc(O)c(Cl)c1)C(=O)N[C@@H](CC(C)C)C(=O)N[C@H](C(=O)O)C(C)C [SHLVEALJLV] (H-SHLVEAL[Tyr(3-Cl)]LV-OH) | 2.02 |

Same assay, conditions: post-translationally modified insulin peptide; competition binding assay; a dash indicates IC50 >40,000 nM; read-out: A*02:01 binding (IC50 nM) Modified

| SMILES | IC50 [nM] |
| --- | --- |
| CC(C)C[C@H](NC(=O)[C@H](C)NC(=O)[C@H](CCC(=O)O)NC(=O)[C@@H](NC(=O)[C@H](CC(C)C)NC(=O)[C@H](Cc1c[nH]cn1)NC(=O)[C@H](CO)NC(=O)CNC(=O)[C@H](CS(=O)(=O)O)NC(=O)[C@@H](N)CC(C)C)C(C)C)C(=O)O [LBGSHLVEAL] (H-L[Cya]GSHLVEAL-OH; N-terminus and C-terminus assumed) | > 40000 |
| CC(C)C[C@H](N)C(=O)N[C@H](C(=O)N[C@@H](CS(=O)(=O)O)C(=O)NCC(=O)N[C@@H](CCC(=O)O)C(=O)N[C@@H](CCCNC(=N)N)C(=O)NCC(=O)N[C@@H](Cc1ccc(O)cc1)C(=O)N[C@@H](Cc1ccc(O)cc1)C(=O)N[C@@H](Cc1ccc(O)cc1)C(=O)O)C(C)C [LVBGERGYYY] (H-LV[Cya]GERGYYY-OH; N-terminus and C-terminus assumed) | > 40000 |
| CC(C)C[C@H](N)C(=O)N[C@H](C(=O)N[C@@H](CS(=O)(=O)O)C(=O)NCC(=O)N[C@@H](CCC(=O)O)C(=O)N[C@@H](CCCNC(=N)N)C(=O)NCC(=O)N[C@@H](Cc1ccc(O)cc1)C(=O)N[C@@H](Cc1ccc(O)cc1)C(=O)O)C(C)C [LVBGERGYY] (H-LV[Cya]GERGYY-OH; N-terminus and C-terminus assumed) | > 40000 |
| CC(C)C[C@H](NC(=O)[C@H](Cc1c[nH]cn1)NC(=O)[C@H](CCC(N)=O)NC(=O)[C@@H](N)CC(N)=O)C(=O)N[C@@H](CS(=O)(=O)O)C(=O)NCC(=O)N[C@@H](CO)C(=O)N[C@@H](Cc1c[nH]cn1)C(=O)N[C@@H](CC(C)C)C(=O)N[C@H](C(=O)O)C(C)C [NQHLBGSHLV] (H-NQHL[Cya]GSHLV-OH; N-terminus and C-terminus assumed) | > 40000 |
| CC(C)C[C@H](NC(=O)[C@H](Cc1c[nH]cn1)NC(=O)[C@H](CO)NC(=O)CNC(=O)[C@H](CS(=O)(=O)O)NC(=O)[C@H](CC(C)C)NC(=O)[C@H](Cc1c[nH]cn1)NC(=O)[C@H](CCC(N)=O)NC(=O)[C@@H](N)CC(N)=O)C(=O)O [NQHLBGSHL] (H-NQHL[Cya]GSHL-OH; N-terminus and C-terminus assumed) | > 40000 |
| CC(C)C[C@H](NC(=O)[C@H](Cc1c[nH]cn1)NC(=O)CC[C@H](NC(=O)C[C@H](N)C(=O)O)C(=O)O)C(=O)N[C@@H](CS)C(=O)NCC(=O)N[C@@H](CO)C(=O)N[C@@H](Cc1c[nH]cn1)C(=O)N[C@@H](CC(C)C)C(=O)N[C@H](C(=O)O)C(C)C [OZHLCGSHLV] ({βAsp-γGlu}-HLCGSHLV-OH; N-terminus and C-terminus assumed) | > 40000 |
| CC(C)C[C@H](NC(=O)[C@H](Cc1c[nH]cn1)NC(=O)[C@H](CO)NC(=O)CNC(=O)[C@H](CS)NC(=O)[C@H](CC(C)C)NC(=O)[C@H](Cc1c[nH]cn1)NC(=O)CC[C@H](NC(=O)C[C@H](N)C(=O)O)C(=O)O)C(=O)O [OZHLCGSHL] ({βAsp-γGlu}-HLCGSHL-OH; N-terminus and C-terminus assumed) | > 40000 |
| C[C@H](NC(=O)[C@H](CCC(=O)O)NC(=O)[C@H](CCCNC(N)=O)NC(=O)[C@H](CCCNC(N)=O)NC(=O)[C@@H](NC(=O)[C@H](CCCCN)NC(=O)[C@@H]1CCCN1)[C@@H](C)O)C(=O)N[C@@H](CCC(=O)O)C(=O)N[C@@H](CC(=O)O)C(=O)O [PKTUUEAED] (H-PKT[Cit][Cit]EAED-OH; N-terminus and C-terminus assumed) | > 40000 |
| CC(C)C[C@H](NC(=O)[C@H](Cc1c[nH]cn1)NC(=O)[C@@H](N)CCC(N)=O)C(=O)N[C@@H](CS(=O)(=O)O)C(=O)NCC(=O)N[C@@H](CO)C(=O)N[C@@H](Cc1c[nH]cn1)C(=O)N[C@@H](CC(C)C)C(=O)N[C@H](C(=O)N[C@@H](CCC(=O)O)C(=O)O)C(C)C [QHLBGSHLVE] (H-QHL[Cya]GSHLVE-OH; N-terminus and C-terminus assumed) | > 40000 |
| CC[C@H](C)[C@H](NC(=O)CNC(=O)[C@H](CCCNC(N)=O)NC(=O)[C@H](CCCCN)NC(=O)[C@H](CCC(N)=O)NC(=O)[C@H](CC(C)C)NC(=O)[C@@H](N)CO)C(=O)N[C@H](C(=O)N[C@@H](CCC(=O)O)C(=O)O)C(C)C [SLQKUGIVE] (H-SLQK[Cit]GIVE-OH; N-terminus and C-terminus assumed) | > 40000 |
| C[C@H](NC(=O)[C@H](CCC(=O)O)NC(=O)[C@H](CCCNC(N)=O)NC(=O)[C@H](CCCNC(N)=O)NC(=O)[C@@H](NC(=O)[C@H](CCCCN)NC(=O)[C@@H]1CCCN1C(=O)[C@@H](N)[C@@H](C)O)[C@@H](C)O)C(=O)N[C@@H](CCC(=O)O)C(=O)N[C@@H](CC(=O)O)C(=O)O [TPKTUUEAED] (H-TPKT[Cit][Cit]EAED-OH; N-terminus and C-terminus assumed) | > 40000 |
| CC(C)[C@H](N)C(=O)N[C@@H](CS(=O)(=O)O)C(=O)NCC(=O)N[C@@H](CCC(=O)O)C(=O)N[C@@H](CCCNC(=N)N)C(=O)NCC(=O)N[C@@H](Cc1ccc(O)cc1)C(=O)N[C@@H](Cc1ccc(O)cc1)C(=O)N[C@@H](Cc1ccc(O)cc1)C(=O)N[C@H](C(=O)O)[C@@H](C)O [VBGERGYYYT] (H-V[Cya]GERGYYYT-OH; N-terminus and C-terminus assumed) | > 40000 |
| CC(C)[C@H](N)C(=O)N[C@@H](CS(=O)(=O)O)C(=O)NCC(=O)N[C@@H](CCC(=O)O)C(=O)N[C@@H](CCCNC(=N)N)C(=O)NCC(=O)N[C@@H](Cc1ccc(O)cc1)C(=O)N[C@@H](Cc1ccc(O)cc1)C(=O)N[C@@H](Cc1ccc(O)cc1)C(=O)O [VBGERGYYY] (H-V[Cya]GERGYYY-OH; N-terminus and C-terminus assumed) | > 40000 |
| CC(C)C[C@H](NC(=O)[C@H](Cc1c[nH]cn1)NC(=O)[C@H](CO)NC(=O)CNC(=O)[C@H](CS(=O)(=O)O)NC(=O)[C@H](CC(C)C)NC(=O)[C@H](Cc1c[nH]cn1)NC(=O)[C@H](CCC(N)=O)NC(=O)[C@H](CC(N)=O)NC(=O)[C@@H](N)C(C)C)C(=O)O [VNQHLBGSHL] (H-VNQHL[Cya]GSHL-OH; N-terminus and C-terminus assumed) | > 40000 |
| CC(C)C[C@H](NC(=O)[C@H](Cc1c[nH]cn1)NC(=O)[C@H](CCC(N)=O)NC(=O)[C@H](CC(N)=O)NC(=O)[C@@H](N)C(C)C)C(=O)N[C@@H](CS(=O)(=O)O)C(=O)NCC(=O)N[C@@H](CO)C(=O)N[C@@H](Cc1c[nH]cn1)C(=O)O [VNQHLBGSH] (H-VNQHL[Cya]GSH-OH; N-terminus and C-terminus assumed) | > 40000 |
| CC(C)C[C@H](NC(=O)[C@H](Cc1c[nH]cn1)NC(=O)[C@H](CO)NC(=O)CNC(=O)[C@H](CS)NC(=O)[C@H](CC(C)C)NC(=O)[C@H](Cc1c[nH]cn1)NC(=O)CC[C@H](NC(=O)C[C@H](NC(=O)[C@@H](N)C(C)C)C(=O)O)C(=O)O)C(=O)O [VOZHLCGSHL] (H-V[βAsp][γGlu]HLCGSHL-OH; N-terminus and C-terminus assumed) | > 40000 |
| CC(C)C[C@H](NC(=O)[C@H](Cc1c[nH]cn1)NC(=O)CC[C@H](NC(=O)C[C@H](NC(=O)[C@@H](N)C(C)C)C(=O)O)C(=O)O)C(=O)N[C@@H](CS)C(=O)NCC(=O)N[C@@H](CO)C(=O)N[C@@H](Cc1c[nH]cn1)C(=O)O [VOZHLCGSH] (H-V[βAsp][γGlu]HLCGSH-OH; N-terminus and C-terminus assumed) | > 40000 |

Same assay, conditions: read-out: A*02:01 binding (IC50 nM) Modified

| SMILES | IC50 [nM] |
| --- | --- |
| CC(C)C[C@H](NC(=O)[C@H](Cc1c[nH]cn1)NC(=O)[C@H](CO)NC(=O)CNC(=O)[C@H](CS(=O)(=O)O)NC(=O)[C@@H](N)CC(C)C)C(=O)N[C@H](C(=O)N[C@@H](CCC(=O)O)C(=O)N[C@@H](C)C(=O)O)C(C)C [LBGSHLVEA] (H-L[Cya]GSHLVEA-OH) | 14800 |
| CC(C)C[C@H](NC(=O)[C@H](Cc1ccc(O)cc1)NC(=O)[C@@H](N)CC(C)C)C(=O)N[C@H](C(=O)N[C@@H](CS(=O)(=O)O)C(=O)NCC(=O)N[C@@H](CCC(=O)O)C(=O)N[C@@H](CCCNC(=N)N)C(=O)NCC(=O)N[C@@H](Cc1ccc(O)cc1)C(=O)O)C(C)C [LYLVBGERGY] (H-LYLV[Cya]GERGY-OH) | 35500 |
| CSCC[C@H](N)C(=O)N[C@@H](CCCNC(N)=O)C(=O)N[C@@H](CC(C)C)C(=O)N[C@@H](CC(C)C)C(=O)N1CCC[C@H]1C(=O)N[C@@H](CC(C)C)C(=O)N[C@@H](CC(C)C)C(=O)N[C@@H](C)C(=O)N[C@@H](CC(C)C)C(=O)O [MULLPLLAL] (H-M[Cit]LLPLLAL-OH) | 1860 |
| CC(C)C[C@H](NC(=O)[C@H](Cc1c[nH]cn1)NC(=O)[C@@H](N)CCC(N)=O)C(=O)N[C@@H](CS(=O)(=O)O)C(=O)NCC(=O)N[C@@H](CO)C(=O)N[C@@H](Cc1c[nH]cn1)C(=O)N[C@@H](CC(C)C)C(=O)N[C@H](C(=O)O)C(C)C [QHLBGSHLV] (H-QHL[Cya]GSHLV-OH) | 37900 |
| CC(C)C[C@H](NC(=O)[C@@H](N)Cc1ccc(O)cc1)C(=O)N[C@H](C(=O)N[C@@H](CS(=O)(=O)O)C(=O)NCC(=O)N[C@@H](CCC(=O)O)C(=O)N[C@@H](CCCNC(=N)N)C(=O)NCC(=O)N[C@@H](Cc1ccc(O)cc1)C(=O)N[C@@H](Cc1ccc(O)cc1)C(=O)O)C(C)C [YLVBGERGYY] (H-YLV[Cya]GERGYY-OH) | 2420 |
